A short description of series [1]: Lipophilicity, log D of the compound in octanol at pH 7.4. The format is physicochemical.
For series [2], the system named is human transporter (not named). Briefly: Apparent permeability of the compound in MDCK cells expressing human transporter […]. The format is ADME, cell-based, Canis lupus familiaris. The settings on record: dog.
Series [3] in a line: Ratio of total drug uptake in brain to blood in Han Wistar rat after 1 hr. Conditions: brain and blood, read-out: BBR. The format is ADME, tissue-based.

As a reminder, the logD is lipophilicity at a set pH, counting ionised and neutral species. `N#Cc1cnc2c(C(=O)N[C@H]3C4CC5CC3C[C@](O)(C5)C4)cnn2c1`: the logD in series [1] is 0.6.

`Cc1cc(C(F)(F)F)n2ncc(C(=O)N[C@H]3C4CC5CC3C[C@](O)(C5)C4)c2n1` showed a logD in series [1] of 2.3.

Molecule `O=C(N[C@H]1C2CC3CC1C[C@](O)(C3)C2)c1cnn2c(C(F)F)cc(C3CC3)nc12` showed a logD in series [1] of 2.8.

For `Cc1cc(C)n2ncc(C(=O)N[C@H]3C4CC5CC3C[C@](C#N)(C5)C4)c2n1`, the logD in series [1] was found to be 2.9.

As a reminder, the Papp is the rate of passage across a membrane or cell layer, normalised by area and donor concentration. On to `CO[C@]12CC3CC(C1)[C@@H](NC(=O)c1cnn4cc(C)cnc14)C(C3)C2`, for which the logD in series [1] is 2.6. For the same molecule, the Papp in series [2] amounted to 49 ×10⁻⁶ cm/s.

Molecule `O=C(N[C@H]1C2CC3CC1C[C@](O)(C3)C2)c1cnn2cccnc12` showed a logD in series [1] of 1.4.

`O=C(N[C@H]1C2CC3CC1C[C@](O)(C3)C2)c1cnc2cccnn12` returned a logD in series [1] of 1.2.

`O=C(NC1C2CC3CC(C2)CC1C3)c1cnn2cccnc12` (stereo not given) returned a logD in series [1] of 3.5.

`COc1cnc2c(C(=O)N[C@H]3C4CC5CC3C[C@](O)(C5)C4)cnn2c1` registered a logD in series [1] of 1.8.

As for `Cc1ccnc2c(C(=O)N[C@H]3C4CC5CC3C[C@](O)(C5)C4)cnn12`, the logD in series [1] stood at 2. Moreover, in series [3], the Kp at 1 h was found to be 0.3.

Consider `O=C(N[C@H]1C2CC3CC1C[C@](O)(C3)C2)c1cnn2cc(Cl)cnc12`, for which the logD in series [1] came to 1.8. Besides, the Papp in series [2] was 44 ×10⁻⁶ cm/s. The Kp at 1 h in series [3] was determined as 0.3.

In turn, `COCc1cc(C)n2ncc(C(=O)N[C@H]3C4CC5CC3C[C@](O)(C5)C4)c2n1` displayed a logD in series [1] of 1.8.

Consider `Cc1cnc2c(C(=O)N[C@H]3C4CC5CC3C[C@](C#N)(C5)C4)cnn2c1`, for which the logD in series [1] was 2.3. In addition, the apparent permeability (Papp) in series [2] was 46 ×10⁻⁶ cm/s. In addition, the Kp at 1 h in series [3] was determined as 1.6.

`N#C[C@]12CC3CC(C1)[C@@H](NC(=O)c1cnn4cc(Cl)cnc14)C(C3)C2` came in with a logD in series [1] of 2.5. In addition, in series [2], the Papp amounted to 41 ×10⁻⁶ cm/s. Besides, in series [3], the Kp at 1 h amounted to 0.6.

Consider `Cc1ccn2ncc(C(=O)N[C@H]3C4CC5CC3C[C@](O)(C5)C4)c2n1`, for which, in series [1], the pH-dependent lipophilicity (logD) came out at 1.9.

Take `O=C(N[C@H]1C2CC3CC1C[C@](O)(C3)C2)c1cnn2c(C(F)(F)F)ccnc12`: in series [1], the logD came to 2.

For the molecule `Cc1cc(C(F)F)n2ncc(C(=O)N[C@H]3C4CC5CC3C[C@](O)(C5)C4)c2n1`, the logD in series [1] came out at 2.2.

Turning to `COCc1cc(C)nc2c(C(=O)N[C@H]3C4CC5CC3C[C@](O)(C5)C4)cnn12`, the logD in series [1] worked out at 2.1.

Regarding `COCc1cc(C)n2ncc(C(=O)N[C@H]3C4CC5CC3C[C@](C#N)(C5)C4)c2n1`, the logD in series [1] is 2.4.

For the molecule `Cc1cnc2c(C(=O)N[C@H]3C4CC5CC3C[C@](O)(C5)C4)cnn2c1`, in series [1], the logD worked out at 1.7. Further, the Papp in series [2] amounted to 29 ×10⁻⁶ cm/s. In addition, in series [3], the Kp at 1 h was found to be 0.3.

The molecule `Cc1ccnc2c(C(=O)N[C@H]3C4CC5CC3C[C@](C#N)(C5)C4)cnn12` came in with a logD in series [1] of 2.4.

Molecule `Cc1cc(C)n2ncc(C(=O)N[C@H]3C4CC5CC3C[C@](O)(C5)C4)c2n1` registered a logD in series [1] of 2.

Consider `O=C(N[C@H]1C2CC3CC1C[C@](O)(C3)C2)c1cnn2ccccc12`, for which the logD in series [1] came to 1.5.

Take `N#C[C@]12CC3CC(C1)[C@@H](NC(=O)c1cnn4cc(CCO)cnc14)C(C3)C2`: in series [1], the logD was 1.6.

In series [1], `COCc1cc(C)nc2c(C(=O)N[C@H]3C4CC5CC3C[C@](C#N)(C5)C4)cnn12` yielded a log distribution coefficient (logD) of 2.7.

(Values after ChEMBL document CHEMBL3739325, “Design of pyrazolo-pyrimidines as 11-HSD1 inhibitors through optimisation of molecular electrostatic potential” (Medchemcomm, 2015).)
